Entries after “also recorded” stand apart in the source; their conditions may differ.
Tests used:
mice = test: Scratching behavior after i.d. injection into dorsal neck skin; type: in vivo, mouse; conditions: i.d. into dorsal neck, LPA 18:1 500 μg, LPC 50-500 μg, LPC species at the same dose
Description: Behavioral assessment. Mice were shaved at the dorsal neck 1 d before experiments. Mice were allowed to acclimate to a Plexiglas chamber for at least 30 min before testing and received intradermal (i.d.) injection of 50 μL of LPA 18:1, LPC, LPC 14:0, LPC 16:0, LPC 18:0, LPC 18:1, miR-146a mimic, miR-146a scramble, ATP or vehicles through a 30-gauge needle (Becton Dickinson, Franklin Lakes, NJ) into the neck skin. After injections, mice were immediately placed back to the chamber, and the scratching behavior was recorded by a Panasonic video camera for 30 min. Hind limb scratching behavior directed toward the injected area at the nape of neck was observed. One scratch is defined as a lifting of the hind limb toward the injection site and then a replacing of the limb back to the floor, regardless of how many scratching strokes take place between those two movements. Behavioral analysis was conducted by observers blinded to genotype.

hTRPV4 = biological target: T1, hTRPV4 (Homo sapiens, UniProt Q9HBA0); test: Single-channel recordings of hTRPV4 in HEK293 cells; type: biochemical; conditions: +60 mV; 100 nM GSK101 or 5 μM LPC 18:1
T1 construct: expressed in transfected cells; host or cells: HEK293 (ATCC CRL-1573)
T1 sequence (Q9HBA0 whole entry): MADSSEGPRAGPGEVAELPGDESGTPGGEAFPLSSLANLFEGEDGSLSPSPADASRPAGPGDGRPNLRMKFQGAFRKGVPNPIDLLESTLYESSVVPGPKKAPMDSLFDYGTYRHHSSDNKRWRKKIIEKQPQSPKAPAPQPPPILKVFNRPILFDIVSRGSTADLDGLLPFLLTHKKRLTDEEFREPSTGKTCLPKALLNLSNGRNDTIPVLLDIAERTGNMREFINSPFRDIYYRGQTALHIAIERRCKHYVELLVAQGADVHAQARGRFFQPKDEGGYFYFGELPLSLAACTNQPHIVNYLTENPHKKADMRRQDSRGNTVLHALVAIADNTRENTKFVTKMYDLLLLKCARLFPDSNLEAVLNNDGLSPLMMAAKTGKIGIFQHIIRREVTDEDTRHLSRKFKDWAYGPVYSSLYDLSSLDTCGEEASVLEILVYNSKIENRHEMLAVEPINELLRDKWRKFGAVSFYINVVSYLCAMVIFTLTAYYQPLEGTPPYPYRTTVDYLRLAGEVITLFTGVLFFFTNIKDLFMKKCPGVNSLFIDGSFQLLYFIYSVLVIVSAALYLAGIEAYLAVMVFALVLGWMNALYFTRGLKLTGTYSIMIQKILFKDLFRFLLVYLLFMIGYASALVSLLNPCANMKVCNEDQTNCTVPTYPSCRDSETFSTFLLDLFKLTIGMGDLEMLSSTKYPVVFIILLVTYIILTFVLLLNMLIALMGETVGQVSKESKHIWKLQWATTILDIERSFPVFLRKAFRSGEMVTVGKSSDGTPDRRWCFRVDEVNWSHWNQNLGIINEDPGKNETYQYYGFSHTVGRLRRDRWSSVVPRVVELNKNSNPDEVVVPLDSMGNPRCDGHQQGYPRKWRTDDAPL
Description: Cell culture and transfection. HEK293 cells (ATCC® CRL-1573) were cultured on poly-D-lysine coated coverslips in 24-well plate containing DMEM media with high-Glucose (Gibco, Gaithersburg, MD) supplemented with 10% fetal bovine serum (FBS, HyClone Laboratories, Logan, UT) and 100 U/mL of penicillin/streptomycin (Gibco, Gaithersburg, MD). Cell cultures were maintained with 5% of CO2 in a humidified incubator at 37° C. HEK cells were transfected with rat or human wild type or mutant TRPV4 channels with EGFP or YFP coupled to their C-termini (1.5 μg of plasmid for excised patch clamp and Ca^2+ imaging and 200 ng for single-channel experiments). The jetPEI™ Polyplus transfection reagent (Polyplus Transfection, New York, NY) for electrophysiology or Lipofectamine™ 2000 Reagent (Invitrogen, Waltham, MA) for Ca^2+ imaging were used for transfections per manufacturer's instructions as previously described (Chen et al. Pain 2014, 155, 2662-2672; Morales-Lazaro et al. Nat. Commun. 2016, 7, 13092). To investigate whether miR-146a can directly activate TRPV1 channels or indirectly via TLRs, HEK293 cells were transfected with rTRPV1 or co-transfected rTRPV1 with rTLR7, rTLR2, or rTLR6 (Addgene, Watertown, MA) for Ca^2+ imaging assay. Control cells were transfected with GFP or YFP.
For single-channel recordings, Borosilicate glass […]) pipettes were used. Recordings were obtained at +60 mV by acquiring several traces of 1-3 s duration. The effect of GSK1016790A or LPC 18:1 on single TRPV4 channels was studied in inside-out. Currents were filtered at 2 kHz and sampled at 5 kHz. […] Single-channel openings and closures were identified with the half-threshold crossing technique (Morales-Lazaro et al. Nat. Commun. 2016, 7, 13092). The channel open probability was calculated as the sum of the total open time divided by the sweep duration. Dwell times and amplitude histograms in the closed or open states were collected in logarithmic time histograms according to the Sine-Sigworth transformation (Sigworth et al. Biophys. J. 1987, 52, 1047-1054). Sums of three or two exponential components were fitted to histograms using a least-squares algorithm.

rTRPV4-R746D = rTRPV4-R746D (Rattus norvegicus, UniProt Q9ERZ8, R746D); test: Inside-out patch-clamp, HEK cells transfected with rTRPV4-R746D; type: biochemical; set-up: expressed in transfected cells; host or cells: HEK293; conditions: 5 μM LPC 18:1
Chain of rTRPV4-R746D (Q9ERZ8 whole entry R746D): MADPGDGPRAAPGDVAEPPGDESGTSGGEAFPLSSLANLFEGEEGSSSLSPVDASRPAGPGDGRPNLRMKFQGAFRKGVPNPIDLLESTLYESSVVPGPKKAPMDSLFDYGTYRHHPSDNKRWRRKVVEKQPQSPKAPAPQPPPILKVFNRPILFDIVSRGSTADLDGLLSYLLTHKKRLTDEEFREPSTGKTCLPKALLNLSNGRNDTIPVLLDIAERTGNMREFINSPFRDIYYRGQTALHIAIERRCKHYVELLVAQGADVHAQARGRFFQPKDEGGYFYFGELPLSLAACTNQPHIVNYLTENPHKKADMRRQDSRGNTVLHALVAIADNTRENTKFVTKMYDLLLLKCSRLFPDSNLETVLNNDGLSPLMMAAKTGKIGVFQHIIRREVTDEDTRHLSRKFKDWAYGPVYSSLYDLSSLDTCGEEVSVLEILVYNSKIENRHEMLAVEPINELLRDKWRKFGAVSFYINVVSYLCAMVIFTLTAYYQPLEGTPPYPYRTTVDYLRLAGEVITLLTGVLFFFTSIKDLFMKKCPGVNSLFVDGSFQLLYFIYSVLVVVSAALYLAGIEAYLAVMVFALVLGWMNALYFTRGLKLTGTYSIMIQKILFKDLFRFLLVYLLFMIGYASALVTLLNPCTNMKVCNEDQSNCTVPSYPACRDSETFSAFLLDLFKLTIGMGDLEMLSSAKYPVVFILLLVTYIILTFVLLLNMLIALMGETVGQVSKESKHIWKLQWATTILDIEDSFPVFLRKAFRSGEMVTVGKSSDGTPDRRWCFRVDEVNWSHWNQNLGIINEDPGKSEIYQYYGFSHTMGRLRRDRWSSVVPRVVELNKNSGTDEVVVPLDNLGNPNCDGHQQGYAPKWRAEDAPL
Description: Cell culture and transfection. HEK293 cells (ATCC® CRL-1573) were cultured on poly-D-lysine coated coverslips in 24-well plate containing DMEM media with high-Glucose (Gibco, Gaithersburg, MD) supplemented with 10% fetal bovine serum (FBS, HyClone Laboratories, Logan, UT) and 100 U/mL of penicillin/streptomycin (Gibco, Gaithersburg, MD). Cell cultures were maintained with 5% of CO2 in a humidified incubator at 37° C. HEK cells were transfected with rat or human wild type or mutant TRPV4 channels with EGFP or YFP coupled to their C-termini (1.5 μg of plasmid for excised patch clamp and Ca^2+ imaging and 200 ng for single-channel experiments). […]
Electrophysiology. Currents were recorded using the inside-out configuration of the patch-clamp technique (Hamill et al. Pflugers Arch. 1981, 391, 85-100). […] Mean current values in response to GSK1016790A or LPC 18:1 were measured after channel activation had reached the steady-state (˜3 min). […] Currents were low-pass filtered at 2 kHz and sampled at 10 kHz with an EPC 10 amplifier (HEKA Elektronik) and were plotted and analyzed with Igor Pro (Wavemetrics Inc.).

human keratinocytes = test: Ca2+ imaging in cultured human keratinocytes; type: cell-based; conditions: inhibitor 10 μM
Description: In brief, surgically discarded foreskin samples, obtained from Duke Children's Hospital in accordance to institutionally approved IRB protocol, were incubated with Dispase (Gibco, Gaithersburg, MD, 4 U/mL) for 12-16 h at 4° C. followed by 0.05% trypsin (Gibco, Gaithersburg, MD) for 10-20 min at 37° C. Cells were maintained in keratinocyte serum-free media (Invitrogen, Waltham, MA) with 5% CO2 at 37° C. and used at passage 2-3.
In vitro and ex vivo Ca^2+ imaging. […] Ca^2+ imaging of cultured cells in response to chemicals was conducted after loading with 5 μM Fura2-AM (Invitrogen, Waltham, MA) for 45 min after a ratiometric Ca^2+-imaging protocol with 340/380-nm blue light for dual excitation. Ratios of emissions were acquired at 0.5 Hz. ΔR/R0 was determined as the fraction of the increase of a given ratio over baseline ratio divided by baseline ratio. […] Control cells received vehicles.

Row | Compound | scratching behavior (itch) induced by i.d. injection of lipid (mice) | scratching behavior (itch) induced by i.d. injection of lipid (mice; listed as LPC (18:1)) | open level (single-channel) amplitude (hTRPV4) [pA] | open probability (Po) (hTRPV4) | single channel conductance (gi) (hTRPV4) [pS] | average activation of currents, normalized to 1 μM GSK101 (rTRPV4-R746D) [%] | effect on LPA 18:1 (10 μM) induced Ca2+ signal (human keratinocytes) | effect on LPC (10 μM) induced Ca2+ signal (human keratinocytes)
1 | LPC 18:1 | caused robust itch; also recorded: most potent | the most potent | 3.27±0.41 | 0.75±0.08 | 54.5 | 15±3 |  | 
2 | Cc1c(C(=O)Nc2cccc(C(F)(F)F)c2)cc(-c2ccccc2)n1CCCN1CCOCC1 [HC067047] |  |  |  |  |  |  | remained unchanged | significantly reduced
